Experimental data taken from article PMC5651845, “A New Generation of Arachidonic Acid Analogues as Potential Neurological Agent Targeting Cytosolic Phospholipase A2” (Scientific Reports, 2017).

What was measured:
[1] = PAMPA with porcine brain lipids (BBB permeation); conditions: for order of Pe values of reference compounds: similar conditions
Description: Thus to explore whether 2i is able to penetrate into the brain, we used PAMPA with porcine brain lipids as the lipid barrier. […] A minimum Pe of […] × 10^−6 cm/s has been cited as the threshold for permeability across the blood brain barrier.
The Parallel Artificial Membrane Permeability Assay (PAMPA) was used to determine the effective permeability (Pe) of 2i. The method reported by Di et al.[53] was followed with modifications. Determinations were carried out on MultiScreen-IP PAMPA assay (donor) plates (MAIPNTR10) and MultiScreen Receiver Plates (MATRNPS50) from Millipore Corporation (USA) with porcine polar brain lipids (Avanti Polar Lipids Inc, Alabaster, AL) as the lipid barrier.
An aliquot (5 µL) of 2% porcine brain lipids in dodecane (ReagentPlus®, Sigma Aldrich, USA) was dispensed into the donor well. A stock solution (5 mM) of 2i prepared in DMSO was diluted with 1x phosphate buffer (PBS, pH 7.4) to give a 50 µM solution. An aliquot (300 µL) of the solution was dispensed into the donor well and an equal volume of buffer (1xPBS with 1% DMSO) was added to the corresponding acceptor well. The donor and acceptor plates were assembled, the unit was placed in a humidified box and gently agitated on a mini shaker at room temperature (25 °C) for 16 h. After this time, aliquots (200 µL) were withdrawn from the donor and acceptor wells, diluted separately to 1 mL with PBS, and quantified at λmax of 290 nm on a Shimadzu UV-1800 Spectrophotometer.
300 µL aliquots of stock solutions (500 µM, 1xPBS, 0.1% DMSO) were dispensed to donor wells as described earlier. Quantification was by UV at λmax of 272 nm (caffeine), 284 nm (carbamazepine), 330 nm (quinidine), 280 nm (dopamine) and 288 nm (propanolol). […] Pe was obtained from (3):3 Pe=−2.303×{VAVD/[(VA+VD)×A×t]}×log{1−[(VA+VD)/(VD.S)]×CA(t)/CD(0)} where VA and VD are the volumes of acceptor (cm^3) and donor (cm^3) wells respectively, A is the area of the surface area of the membrane (0.24 cm^2), t is the permeation time (s). The Pe of each compound was obtained from at least 3 separate experiments using 2 different stock solutions. For each independent determination, triplicates (3 wells) were run for each compound.

[2] = molecular target: T1, recombinant cPLA2 (Homo sapiens, UniProt P47712); experiment: EnzChek phospholipase A2 fluorogenic assay (% activity) at 10 μM; format: biochemical; conditions: 10 μM compound; for remaining activity at 10 µM: 1 h, room temperature
T1 construct: purchased US Biological P4074-03R
T1 sequence (P47712 1-749): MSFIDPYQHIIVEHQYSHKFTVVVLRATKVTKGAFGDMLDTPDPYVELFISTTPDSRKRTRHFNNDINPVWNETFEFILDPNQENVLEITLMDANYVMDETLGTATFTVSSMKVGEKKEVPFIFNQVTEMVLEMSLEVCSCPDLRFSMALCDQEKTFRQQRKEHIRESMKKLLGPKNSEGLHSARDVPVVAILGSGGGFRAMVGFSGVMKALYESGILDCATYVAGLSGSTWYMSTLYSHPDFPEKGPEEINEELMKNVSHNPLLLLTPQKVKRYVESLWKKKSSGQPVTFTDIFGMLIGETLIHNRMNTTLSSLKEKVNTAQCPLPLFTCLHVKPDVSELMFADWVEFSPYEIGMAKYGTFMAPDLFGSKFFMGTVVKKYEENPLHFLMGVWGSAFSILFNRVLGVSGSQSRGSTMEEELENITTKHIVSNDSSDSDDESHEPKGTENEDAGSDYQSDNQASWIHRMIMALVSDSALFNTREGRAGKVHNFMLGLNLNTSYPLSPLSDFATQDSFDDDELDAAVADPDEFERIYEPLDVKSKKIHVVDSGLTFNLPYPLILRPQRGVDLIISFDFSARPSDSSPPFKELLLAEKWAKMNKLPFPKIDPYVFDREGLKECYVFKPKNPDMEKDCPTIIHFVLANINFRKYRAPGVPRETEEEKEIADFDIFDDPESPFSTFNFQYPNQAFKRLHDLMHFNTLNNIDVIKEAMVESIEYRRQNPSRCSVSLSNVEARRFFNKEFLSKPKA
Description: The compounds were evaluated with a fluorogenic PLA2 assay kit (EnzChek® Phospholipase A2 Assay Kit, Catalog No: E10217) at a standard 10 μM concentration. Potential inhibitors were determined by their ability to lower cPLA2 activity to a greater extent than 1a.
The assay was conducted according to the manufacturer’s instruction (E10217, Molecular Probes) with slight modification. Briefly, substrate solution was separately prepared by mixing 5 μL of DOPG, 5 μL of DOPC and 5 μL of substrate respectively in 1.5 mL of 1X phospholipase A2 reaction buffer. The mixture was vortexed vigorously for 3 min before allowing to stand at room temperature for 1 h. 48 μL of 1X phospholipase A2 reaction buffer were added into each well of a 96-wells plate. This was followed by addition of 1 μL of recombinant cPLA2 (P4074-03R, US Biological) and 1 μL of 1 mM of the respective compound dissolved in DMSO. The final concentration of the test compound achieved is 10 μM. The reaction was initiated by adding 50 μL of the substrate solution and incubating at room temperature for 1 h. Fluorescence was measured using a Varioskan plate reader (Thermo Scientific, MA, USA) by exciting at 485 nm, while fluorescence emission was detected at 515 nm. Positive control was performed when 1 μL of test compound was replaced by vehicle DMSO. % activity was expressed as the mean value of duplicate wells from three experiments. % activity was calculated by the following formula1 %activity=fluorescenceoftestedwell−background/fluorescenceofpostivecontrol−background

[3] = tested on: BV-2 cells; experiment: MTS cell proliferation assay on BV-2 cells; format: cell-based, murine; conditions: 10 μM, 48 h and 72 h, vs vehicle control
Description: (§1) To explore whether the inhibitors are cytotoxic, MTS assay were conducted on BV-2 cells, a murine microglial cell line derived from post-natal mouse cerebella, and HEK293T cells that are derived from human embryonic kidney. Both cell types were treated with 10 μM of 1a, 2g and 2i for 48 h and 72 h (Fig. 3A,B). Dimethyl sulfoxide (DMSO) vehicle control was also included as the compounds were dissolved in DMSO.
(§2) Cells were plated on a 96-wells plate and grown for 24 h to a density of 8000 cells per well for both HEK293T and BV-2 cells. Cells were cultured at 37 °C under a 5% CO2 environment in 100 μL of culture medium. Thereafter, the compound of interest dissolved in culture medium at a concentration of 10 μM was replaced into each well. DMSO was added as vehicle in the control group. 3 biological replicates were performed. The plates were then incubated at 37 °C with 5% CO2 for 48 h and 72 h. At each individual time point, 20 μL of CellTiter 96® AQueous One Solution (MTS reagent) was added into each well and re-incubated at 37 °C with 5% CO2 without light for 3 h. Colorimetric readings were taken using a Varioskan plate reader at 490 nm and analyzed. Three independent biological repeats with four technical replicates were performed.

[4] = tested on: HEK293T cells; experiment: MTS cell proliferation assay on HEK293T cells; format: cell-based, human; conditions: 10 μM, 48 h and 72 h, vs vehicle control
Description: as §1, §2

[5] = molecular target: T1, recombinant cPLA2; experiment: EnzChek phospholipase A2 fluorogenic assay (IC50); format: biochemical
Description: The assay was conducted as described above. Instead of adding a fixed concentration of the test compound, various concentrations of compound were reconstituted in DMSO. 48 μL of 1X phospholipase A2 reaction buffer were added into each well of a 96-wells plate. This was followed by addition of 1 μL of recombinant cPLA2 (P4074-03R, US Biological) and 1 μL of the respective concentration of the test compound dissolved in DMSO. The reaction was initiated by adding 50 μL of the substrate solution and incubating at room temperature for 1 h. Fluorescence was measured using a Varioskan plate reader by exciting at 485 nm, while fluorescence emission was detected at 515 nm. Positive control was performed when 1 μL of test compound was replaced by vehicle DMSO. IC50 was expressed as the mean value of duplicate wells from three experiments.

| SMILES | inhibition at 10 µM [2] [%] | remaining activity at 10 µM [2] [%] | also measured |
| --- | --- | --- | --- |
| NC(=O)N1c2ccccc2C=Cc2ccccc21 [carbamazepine] | – | – | order of Pe values of reference compounds [1]: propranolol > carbamazepine > quinidine > caffeine > dopamine |
| CCCCC/C=C\C/C=C\C/C=C\C/C=C\CCCCCC(=O)NCCCCC(=O)O [2k] | 62.3 | 37.7 ± 1.5 | – |
| O=C(CCC/C=C\C/C=C\C/C=C\C/C=C\c1ccccc1)C(F)(F)F [1d] | 68.2 | 31.8 ± 2 | – |
| CCCCC/C=C\C/C=C\C/C=C\C/C=C\CCCC(=O)Nc1ccc(C(=O)O)cc1 [2n] | 66.7 | 33.3 ± 0.9 | – |
| CCCCC/C=C\C/C=C\C/C=C\C/C=C\CCCC(=O)NCc1cccc(C(=O)O)c1 [2f] | 64.4 | 35.6 ± 2.1 | – |
| CCC/C=C\C/C=C\C/C=C\C/C=C\CCCC(=O)C(F)(F)F [1b] | 63 | 37 ± 3.9 | – |
| CCCCC/C=C\C/C=C\C/C=C\C/C=C\CCCC(=O)Nc1cccc(C(N)=O)c1 [2m] | 42.5 | 57.5 ± 1.4 | – |
| CCCCC/C=C\C/C=C\C/C=C\C/C=C\CCCC(=O)Nc1cccc(S(N)(=O)=O)c1 [2p, (5Z,8Z,11Z,14Z)-N-(3-sulfamoylphenyl)icosa-5,8,11,14-tetraenamide] | 46.1 | 53.9 ± 2.7 | – |
| CCCCC/C=C\C/C=C\C/C=C\C/C=C\CCCC(=O)NCc1ccc(C(=O)O)cc1 [2e] | 74.2 | 25.8 ± 0.1 | – |
| O=C1NC(=O)/C(=C/c2ccc(C(=O)NC[C@@H]3C[C@@H](SC(c4ccccc4)(c4ccccc4)c4ccccc4)CN3C(=O)c3ccccc3C(=O)c3ccc(F)cc3F)cc2)S1 [pyrrophenone] | – | – | effective permeability (Pe) ([1]; porcine brain lipids, 16 h, 25 °C): 2.00 ± 0.05 × 10^−6 cm/s |
| CCC/C=C\C/C=C\C/C=C\C/C=C\CCCCC(=O)Nc1cccc(C(=O)O)c1 [2j] | 83.5 | 16.5 ± 1.2 | – |
| CCCCC/C=C\C/C=C\C/C=C\C/C=C\CCCC(=O)Nc1cccc(C(=O)O)c1 [2d] | 86.8 | 13.2 ± 1.2 | – |
| CCCCC/C=C\C/C=C\C/C=C\C/C=C\CCCC(=O)NCCCCCC(=O)O [2c] | 59.1 | 40.9 ± 1.1 | – |
| CCCCC/C=C\C/C=C\C/C=C\C/C=C\CCCC(N)=O [1m, (5Z,8Z,11Z,14Z)-icosa-5,8,11,14-tetraenamide] | 39.3 | 60.7 ± 1.9 | – |
| Cn1c(=O)c2c(ncn2C)n(C)c1=O [caffeine] | – | – | order of Pe values of reference compounds [1]: propranolol > carbamazepine > quinidine > caffeine > dopamine |
| CCCCC/C=C\C/C=C\C/C=C\C/C=C\CCCC(=O)C(F)(F)Cl [1n] | 50.8 | 49.2 ± 4.5 | – |
| CCCCC/C=C\C/C=C\C/C=C\C/C=C\CCCC(=O)NCCCCC(=O)O [2b] | 73.3 | 26.7 ± 0.1 | – |
| CCCCCCCC/C=C\C/C=C\C/C=C\C/C=C\CCCC(=O)C(F)(F)F [1c] | 55 | 45 ± 3.5 | – |
| CC(C)NCC(O)COc1cccc2ccccc12 (stereo not shown) [propranolol] | – | – | order of Pe values of reference compounds [1]: propranolol > carbamazepine > quinidine > caffeine > dopamine |
| NCCc1ccc(O)c(O)c1 [dopamine] | – | – | order of Pe values of reference compounds [1]: propranolol > carbamazepine > quinidine > caffeine > dopamine |
| CCCCC/C=C\C/C=C\C/C=C\C/C=C\CCCC(=O)Nc1ccccc1C(=O)O [2o] | 34.5 | 65.5 ± 4 | – |
| CCCCC/C=C\C/C=C\C/C=C\C/C=C\CCCC(=O)C(F)F [1o] | 59.8 | 40.2 ± 0.5 | – |
| CCCCC/C=C\C/C=C\C/C=C\C/C=C\CCCC(=O)C(F)(F)F [1a, arachidonyl trifluoromethyl ketone, reference compound] | 60 | 40 ± 0.9 | cytotoxicity (MTS) on BV-2 cells [3]: no statistical differences in cell survival; cytotoxicity (MTS) on HEK293T cells [4]: no statistical differences in cell survival; IC50 [5]: 16.5 ± 3 µM |
| CCCCC/C=C\C/C=C\C/C=C\C/C=C\CCCC(=O)NCCCC(=O)O [2a] | 60.3 | 39.7 ± 2.6 | – |
| C=C[C@H]1C[N@@]2CC[C@H]1C[C@@H]2[C@@H](O)c1ccnc2ccc(OC)cc12 [quinidine] | – | – | order of Pe values of reference compounds [1]: propranolol > carbamazepine > quinidine > caffeine > dopamine |
| CCCCCC/C=C\C/C=C\C/C=C\C/C=C\CCC(=O)C(F)(F)F [1e] | 59.5 | 40.5 ± 3.6 | – |
| CCCCC/C=C\C/C=C\C/C=C\C/C=C\CCCC(=O)Nc1ccc(C(N)=O)cc1 [2l] | 32.6 | 67.4 ± 5.7 | – |
| CCC/C=C\C/C=C\C/C=C\C/C=C\CCCCC(=O)NCCCCC(=O)O [2h] | 56.4 | 43.6 ± 0.2 | – |
| CCCCC/C=C\C/C=C\C/C=C\C/C=C\CCCC(=O)NCCCCCC(=O)OC [20c] | 15.2 | 84.8 ± 1 | – |
